Format in all cases: functional
Assay [1] concerns Staphylococcus aureus. Nature of the assay: Antibacterial activity against Staphylococcus aureus DSM 1104 assessed as growth inhibition after 24 hr. The conditions noted are these: DSM 1104, 24 h.
Assay [2] concerns Pseudomonas aeruginosa. Nature of the assay: Antibacterial activity against Pseudomonas aeruginosa ATCC 10145 assessed as growth inhibition after 24 hr by two-fold serial dilution method. The settings on record: ATCC 10145, 24 h.
In assay [3] the test system is Escherichia coli. Nature of the assay: Antibacterial activity against Escherichia coli ATCC 11775 assessed as growth inhibition after 24 hr by two-fold serial dilution method. The settings on record: ATCC 11775, 24 h.
Assay [4] has as its system Bacillus subtilis. Description: Antibacterial activity against Bacillus subtilis ATCC 6633 assessed as growth inhibition after 24 hr by two fold serial dilution method. The conditions noted are these: ATCC 6633, 24 h.
For assay [5], the system named is Candida albicans. Description: Antifungal activity against Candida albicans DSM 70014 assessed as diamater of growth inhibition zone after 48 hr by agar cup diffusion method.
Assay [6] concerns Pseudomonas aeruginosa. Nature of the assay: Antibacterial activity against Pseudomonas aeruginosa ATCC 10145 assessed as growth inhibition after 24 hr. The conditions noted are these: ATCC 10145, 24 h.
Assay [7] relates to Escherichia coli. Description: Antibacterial activity against Escherichia coli ATCC 11775 assessed as diamater of growth inhibition zone after 24 hr by agar cup diffusion method.
Assay [8] deals with Bacillus subtilis. Description: Antibacterial activity against Bacillus subtilis ATCC 6633 assessed as diamater of growth inhibition zone after 24 hr by agar cup diffusion method.
For assay [9], the system named is Pseudomonas aeruginosa. Nature of the assay: Antibacterial activity against Pseudomonas aeruginosa ATCC 10145 assessed as diamater of growth inhibition zone after 24 hr by agar cup diffusion method.
In assay [10] the test system is Staphylococcus aureus. Description: Antibacterial activity against Staphylococcus aureus DSM 1104 assessed as growth inhibition after 24 hr by two fold serial dilution method. The settings on record: DSM 1104, 24 h.
Assay [11] has as its system Candida albicans. Nature of the assay: Antifungal activity against Candida albicans DSM 70014 assessed as growth inhibition after 48 hr by two-fold serial dilution method. The conditions noted are these: DSM 70014, 48 h.
Assay [12] deals with Bacillus subtilis. Description: Antibacterial activity against Bacillus subtilis ATCC 6633 assessed as growth inhibition after 24 hr. The conditions noted are these: ATCC 6633, 24 h.
In assay [13] the test system is Candida albicans. Description: Antifungal activity against Candida albicans DSM 70014 assessed as growth inhibition after 48 hr. The settings on record: DSM 70014, 48 h.
In assay [14] the test system is Staphylococcus aureus. Nature of the assay: Antibacterial activity against Staphylococcus aureus DSM 1104 assessed as diamater of growth inhibition zone after 24 hr by agar cup diffusion method.
Assay [15] deals with Escherichia coli. Nature of the assay: Antibacterial activity against Escherichia coli ATCC 11775 assessed as growth inhibition after 24 hr. The conditions noted are these: ATCC 11775, 24 h.
Assay [16] has as its system Pseudomonas aeruginosa. Nature of the assay: Ratio of Ampicillin MIC to compound MIC for Pseudomonas aeruginosa ATCC 10145.

This note sets out measurements from ChEMBL document CHEMBL3044795, “Synthesis and biological evaluation of novel benzoquinones as potential antimicrobial agents” (2013).

For orientation: MBC means the lowest tested concentration that kills the bacteria rather than only halting them. For orientation: MIC means the least concentration at which growth counts as inhibited. A word on the MFC: it is the lowest tested concentration that kills the fungus rather than only halting it.

Values after ≈ are worked out from the molar mass of the structure shown.

Consider `COc1ccc(/C=N/N=c2\scc(-c3cc(O)ccc3O)n2-c2ccc(Cl)cc2)cc1O`, for which the MBC worked out at 50 µg/mL (≈ 107 µM) in the assay with Staphylococcus aureus [1], 100 µg/mL (≈ 214 µM) in the assay on Pseudomonas aeruginosa [6], 100 µg/mL (≈ 214 µM) with Bacillus subtilis [12] and 100 µg/mL (≈ 214 µM) in the assay on Escherichia coli [15]. Besides, the minimum inhibitory concentration (MIC) turned out to be 100 µg/mL (≈ 214 µM) in the assay on Pseudomonas aeruginosa [2]; 100 µg/mL (≈ 214 µM) in the assay with Escherichia coli [3]; 50 µg/mL (≈ 107 µM) in the assay on Bacillus subtilis [4]; 25 µg/mL (≈ 53.4 µM) in the assay with Staphylococcus aureus [10]; 25 µg/mL (≈ 53.4 µM) with Candida albicans [11]. The “diameter of the inhibition zone (DIZ)” value in the assay on Candida albicans [5] came to 12 mm; in the assay on Escherichia coli [7], 13 mm; with Bacillus subtilis [8], 14 mm; in the assay on Pseudomonas aeruginosa [9] it was 14 mm; in the assay with Staphylococcus aureus [14] it was 14 mm. Also, the MFC with Candida albicans [13] came out at 50 µg/mL (≈ 107 µM).

Consider `COc1ccc(/C=N/N=c2\scc(-c3cc(O)ccc3O)n2-c2ccccc2)cc1`, for which the minimal bactericidal concentration (MBC) in the assay on Staphylococcus aureus [1], in the assay on Pseudomonas aeruginosa [6], in the assay with Bacillus subtilis [12] and with Escherichia coli [15] was 50 µg/mL (≈ 120 µM) each time. For the same compound, the MIC in the assay on Pseudomonas aeruginosa [2], in the assay with Escherichia coli [3], with Bacillus subtilis [4], with Staphylococcus aureus [10] and in the assay on Candida albicans [11] was 50 µg/mL (≈ 120 µM) in each case. Further, the “diameter of the inhibition zone (DIZ)” value stood at 12 mm in the assay on Candida albicans [5]; 14 mm in the assay on Escherichia coli [7]; 15 mm in the assay with Bacillus subtilis [8]; 14 mm with Pseudomonas aeruginosa [9]; 14 mm in the assay with Staphylococcus aureus [14]. Moreover, in the assay with Candida albicans [13], the MFC was 50 µg/mL (≈ 120 µM).

Turning to `COc1ccc(OC)c(/C=N/N=c2\scc(-c3cc(O)ccc3O)n2-c2ccccc2)c1`, the MBC stood at 50 µg/mL (≈ 112 µM) in the assay with Staphylococcus aureus [1], 25 µg/mL (≈ 55.9 µM) in the assay on Pseudomonas aeruginosa [6], 25 µg/mL (≈ 55.9 µM) in the assay on Bacillus subtilis [12] and 25 µg/mL (≈ 55.9 µM) in the assay with Escherichia coli [15]. In addition, the MIC with Pseudomonas aeruginosa [2] is 12.5 µg/mL (≈ 27.9 µM); in the assay on Escherichia coli [3], 12.5 µg/mL (≈ 27.9 µM); in the assay with Bacillus subtilis [4] it was 12.5 µg/mL (≈ 27.9 µM); in the assay on Staphylococcus aureus [10], 50 µg/mL (≈ 112 µM); in the assay with Candida albicans [11] it was 25 µg/mL (≈ 55.9 µM). In addition, the “diameter of the inhibition zone (DIZ)” value stood at 14 mm in the assay with Candida albicans [5]; 18 mm in the assay on Escherichia coli [7]; 15 mm in the assay on Bacillus subtilis [8]; 16 mm in the assay on Pseudomonas aeruginosa [9]; 16 mm in the assay on Staphylococcus aureus [14]. In the assay with Candida albicans [13], the MFC is 50 µg/mL (≈ 112 µM).

Consider `COc1cc(/C=N/N=c2\scc(-c3cc(O)ccc3O)n2-c2ccccc2)ccc1O`, for which the MBC in the assay on Staphylococcus aureus [1] was determined as 25 µg/mL (≈ 57.7 µM); in the assay with Pseudomonas aeruginosa [6], 50 µg/mL (≈ 115 µM); in the assay on Bacillus subtilis [12] it was 50 µg/mL (≈ 115 µM); in the assay with Escherichia coli [15], 25 µg/mL (≈ 57.7 µM). Also, the MIC in the assay on Pseudomonas aeruginosa [2] was 50 µg/mL (≈ 115 µM); in the assay on Escherichia coli [3], 12.5 µg/mL (≈ 28.8 µM); in the assay on Bacillus subtilis [4], 50 µg/mL (≈ 115 µM); in the assay on Staphylococcus aureus [10], 12.5 µg/mL (≈ 28.8 µM); in the assay on Candida albicans [11], 12.5 µg/mL (≈ 28.8 µM). Besides, the “diameter of the inhibition zone (DIZ)” value in the assay with Candida albicans [5] is reported as 15 mm; in the assay with Escherichia coli [7], 14 mm; in the assay with Bacillus subtilis [8] it was 16 mm; in the assay with Pseudomonas aeruginosa [9], 15 mm; with Staphylococcus aureus [14], 15 mm. Besides, the MFC in the assay with Candida albicans [13] was 25 µg/mL (≈ 57.7 µM).

`COc1ccc(/C=N/N=c2\scc(-c3cc(O)ccc3O)n2-c2ccccc2)cc1O`: the MBC in the assay with Staphylococcus aureus [1] amounted to 100 µg/mL (≈ 231 µM); in the assay with Pseudomonas aeruginosa [6] it was 25 µg/mL (≈ 57.7 µM); in the assay with Bacillus subtilis [12], 25 µg/mL (≈ 57.7 µM); in the assay on Escherichia coli [15], 50 µg/mL (≈ 115 µM). Besides, the minimum inhibitory concentration (MIC) with Pseudomonas aeruginosa [2] turned out to be 12.5 µg/mL (≈ 28.8 µM); in the assay on Escherichia coli [3], 50 µg/mL (≈ 115 µM); in the assay on Bacillus subtilis [4] it was 12.5 µg/mL (≈ 28.8 µM); in the assay with Staphylococcus aureus [10] it was 100 µg/mL (≈ 231 µM); with Candida albicans [11], 100 µg/mL (≈ 231 µM). Further, the “diameter of the inhibition zone (DIZ)” value in the assay with Candida albicans [5] worked out at 14 mm; in the assay on Escherichia coli [7], 24 mm; with Bacillus subtilis [8], 15 mm; in the assay with Pseudomonas aeruginosa [9], 12 mm; in the assay with Staphylococcus aureus [14], 16 mm. The Ratio in the assay on Pseudomonas aeruginosa [16] is on record as 4. For the same compound, the MFC with Candida albicans [13] was 100 µg/mL (≈ 231 µM).

Consider `COc1ccc(/C=N/N=c2\scc(-c3cc(O)ccc3O)n2-c2ccc(C)cc2)cc1`, for which the minimum bactericidal concentration (MBC) in the assay with Staphylococcus aureus [1] stood at 50 µg/mL (≈ 116 µM); in the assay on Pseudomonas aeruginosa [6], 50 µg/mL (≈ 116 µM); in the assay with Bacillus subtilis [12], 50 µg/mL (≈ 116 µM); with Escherichia coli [15], 25 µg/mL (≈ 57.9 µM). Besides, the MIC with Pseudomonas aeruginosa [2] is 50 µg/mL (≈ 116 µM); in the assay on Escherichia coli [3] it was 12.5 µg/mL (≈ 29 µM); with Bacillus subtilis [4] it was 50 µg/mL (≈ 116 µM); in the assay with Staphylococcus aureus [10] it was 50 µg/mL (≈ 116 µM); with Candida albicans [11], 100 µg/mL (≈ 232 µM). Moreover, the “diameter of the inhibition zone (DIZ)” value in the assay on Candida albicans [5] came to 15 mm; with Escherichia coli [7], 15 mm; in the assay on Bacillus subtilis [8] it was 13 mm; with Pseudomonas aeruginosa [9], 16 mm; in the assay with Staphylococcus aureus [14] it was 15 mm. The minimal fungicidal concentration (MFC) with Candida albicans [13] came to 100 µg/mL (≈ 232 µM).
